Laboratory results as given in patent US9486455B2, “Compounds for modulating TRPV3 function” (HYDRA BIOSCIENCES, INC., priority 2007, dated 2016).
Like-named read-outs stand apart in the source and are kept apart here.

What was measured:
human (h) TRPV3 = target: T1, human (h) TRPV3 (Homo sapiens, UniProt Q8NET8); assay: Whole-cell patch clamp, human TRPV3-mediated currents; format: cell-based
T1 construct: expressed in transfected cells; host or cells: HEK293/TREx, tetracycline-induced
T1 sequence (Q8NET8 1-790): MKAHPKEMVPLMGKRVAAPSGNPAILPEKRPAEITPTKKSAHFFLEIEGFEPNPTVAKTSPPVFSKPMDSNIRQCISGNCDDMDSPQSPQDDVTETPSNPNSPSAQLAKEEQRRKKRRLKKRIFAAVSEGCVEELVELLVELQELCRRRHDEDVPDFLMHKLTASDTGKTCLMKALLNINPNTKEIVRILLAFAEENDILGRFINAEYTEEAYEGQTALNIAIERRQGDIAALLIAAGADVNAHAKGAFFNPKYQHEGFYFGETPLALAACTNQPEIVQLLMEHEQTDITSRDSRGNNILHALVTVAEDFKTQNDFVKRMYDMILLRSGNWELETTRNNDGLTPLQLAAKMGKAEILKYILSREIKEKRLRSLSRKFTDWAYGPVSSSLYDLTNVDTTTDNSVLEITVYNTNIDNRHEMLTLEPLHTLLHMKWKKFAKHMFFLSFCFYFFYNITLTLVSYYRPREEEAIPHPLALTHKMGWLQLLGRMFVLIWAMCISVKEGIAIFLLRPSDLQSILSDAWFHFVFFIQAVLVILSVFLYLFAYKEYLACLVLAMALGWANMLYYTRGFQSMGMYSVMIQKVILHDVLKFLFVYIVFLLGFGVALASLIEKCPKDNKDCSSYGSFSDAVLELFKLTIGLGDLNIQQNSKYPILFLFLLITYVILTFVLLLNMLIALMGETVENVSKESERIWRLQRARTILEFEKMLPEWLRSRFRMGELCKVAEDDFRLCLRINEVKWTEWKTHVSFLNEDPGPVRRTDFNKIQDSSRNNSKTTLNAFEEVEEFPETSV
Source text: (§1) Whole-cell patch clamp experiments permit the detection of currents through the TRPV3 channel in the cell line described above. A glass electrode is brought into contact with a single cell and the membrane is then ruptured, permitting control of the voltage of the cell membrane and measurement of currents flowing across the membrane using the amplifier attached to the electrode. A perfusion system permits control of the extracellular solution, including the addition of blockers and activators of the current. The current can be activated by heating this solution to 28° C. or warmer or by addition of 20 μM 2-APB to the solution.
(§2) TRPV3 cells were induced 20-48 hours, removed from growth plates, and replated at low density (to attain good single-cell physical separation) on glass coverslips for measurement. In some cases, cells were grown in low density overnight on glass coverslips. Patch clamp recordings were made in the whole-cell mode with a holding potential of −40 mV. Every 5 seconds, a voltage ramp was applied from −120 to +100 mV, 400 ms in duration. Currents elicited were quantified at −80 mV and +80 mV. The internal solution consisted of 140 mM cesium aspartate, 10 mM EGTA, 2.27 mM MgCl2, 1.91 mM CaCl2 and 10 mM HEPES, pH to 7.2 with KOH; with 50 nM calculated free Ca^2+. External solution was Ringer's solution described above. Upon addition of 2-APB or upon heating of the extracellular solution as described above, TRPV3 current was induced only in TRPV3-expressing cells and not in parental HEK293 TREx cells. […] Removal of the stimulus caused most of the current to go away, and inhibitor addition could still inhibit this current. […]
(§3) P1 refers to the Phase 1 current for human (h) and rat (r) TRPV3, and P2 refers to the Phase 2 current for human (h) and rat (r) TRPV3.

rat (r) TRPV3 = target: T2, rat (r) TRPV3 (Rattus norvegicus, UniProt Q4QYD9); assay: Whole-cell patch clamp, rat TRPV3-mediated currents; format: cell-based
T2 construct: expressed in transfected cells
T2 sequence (Q4QYD9 1-791): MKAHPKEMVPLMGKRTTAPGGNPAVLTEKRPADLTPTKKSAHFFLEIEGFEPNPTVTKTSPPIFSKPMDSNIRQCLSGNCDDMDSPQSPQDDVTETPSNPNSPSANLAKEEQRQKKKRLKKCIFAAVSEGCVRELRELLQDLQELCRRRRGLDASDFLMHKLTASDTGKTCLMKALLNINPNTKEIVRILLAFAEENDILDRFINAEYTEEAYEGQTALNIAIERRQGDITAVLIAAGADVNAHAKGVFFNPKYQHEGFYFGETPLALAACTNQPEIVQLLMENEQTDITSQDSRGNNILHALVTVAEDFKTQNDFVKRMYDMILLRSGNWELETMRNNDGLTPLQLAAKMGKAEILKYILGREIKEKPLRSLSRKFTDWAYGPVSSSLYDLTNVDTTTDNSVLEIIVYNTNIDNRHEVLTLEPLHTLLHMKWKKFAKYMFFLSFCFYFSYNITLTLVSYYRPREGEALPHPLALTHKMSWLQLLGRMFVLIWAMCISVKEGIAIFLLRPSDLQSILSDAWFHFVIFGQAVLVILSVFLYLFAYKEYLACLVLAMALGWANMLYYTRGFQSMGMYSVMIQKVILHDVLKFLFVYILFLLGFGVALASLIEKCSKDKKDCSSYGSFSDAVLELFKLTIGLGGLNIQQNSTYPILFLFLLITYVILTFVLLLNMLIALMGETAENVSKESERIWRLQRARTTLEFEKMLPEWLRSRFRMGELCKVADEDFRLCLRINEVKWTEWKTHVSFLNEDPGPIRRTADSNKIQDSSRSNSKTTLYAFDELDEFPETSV
Source text: as §1, §2, §3

[1] = Phase 1 inward current, read-out: P1 In (h)
[2] = Phase 1 outward current, read-out: P1 Out (h)
[3] = Phase 1 inward current, read-out: P1 In (r)
[4] = Phase 1 outward current, read-out: P1 Out (r)
[5] = Phase 2 inward current, read-out: P2 In (r)
[6] = Phase 2 outward current, read-out: P2 Out (r)
[7] = Phase 2 inward current, read-out: P2 In (h)
[8] = Phase 2 outward current, read-out: P2 Out (h)
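Also: compounds tested at concentrations up to 30 µM.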

| IC50 (human (h) TRPV3; [1]) | IC50 (human (h) TRPV3; [2]) | IC50 (rat (r) TRPV3; [3]) | IC50 (rat (r) TRPV3; [4]) | IC50 (rat (r) TRPV3; [5]) | IC50 (rat (r) TRPV3; [6]) | IC50 (human (h) TRPV3; [7]) | IC50 (human (h) TRPV3; [8]) | SMILES |
| --- | --- | --- | --- | --- | --- | --- | --- | --- |
| ≤ 10000 nM | ≤ 10000 nM | – | – | – | – | – | – | Cc1cccc(C)c1-n1c(/C=C/c2cnccc2O)nc2cnccc2c1=O [Compound 29] |
| ≤ 10000 nM | ≤ 10000 nM | – | – | – | – | ≤ 10000 nM | ≤ 10000 nM | COc1cccc(-n2c(/C=C/c3cccc(OC)c3O)nc3cnccc3c2=O)c1C [Compound 17] |
| ≤ 10000 nM | – | – | – | – | – | ≤ 5000 nM | – | COc1cccc(/C=C/c2nc3ccccc3c(=O)n2-c2c(C)cc(OCCN(C)C)cc2C)c1O [Compound 3] |
| ≤ 500 nM | ≤ 1000 nM | – | – | – | – | – | ≤ 1000 nM | COc1cccc(/C=C/c2nc3ccccc3c(=O)n2-c2c(C)cccc2OCCO)c1O [Compound 48] |
| ≤ 10000 nM | ≤ 10000 nM | – | – | – | – | – | – | COc1cccc(/C=C/c2nc3cnccc3c(=O)n2-c2c(C)cccc2C)n1 [Compound 24] |
| ≤ 500 nM | ≤ 500 nM | ≤ 500 nM | ≤ 500 nM | ≤ 500 nM | ≤ 500 nM | ≤ 500 nM | ≤ 500 nM | COc1cccc(/C=C/c2nc3cnccc3c(=O)n2-c2c(C)cccc2Cl)c1O [Compound 16] |
| ≤ 500 nM | ≤ 500 nM | ≤ 500 nM | ≤ 500 nM | – | – | ≤ 500 nM | ≤ 500 nM | CCOc1cccc(C=Cc2nc3cnccc3c(=O)n2-c2ccccc2C)c1O [Compound 31] |
| ≤ 10000 nM | ≤ 10000 nM | – | – | – | – | – | – | Cc1ccc(O)c(/C=C/c2nc3cnccc3c(=O)n2-c2c(C)cccc2C)n1 [Compound 23] |
| ≤ 10000 nM | ≤ 5000 nM | – | – | – | – | – | – | COc1cccc(/C=C/c2nc3cnccc3c(=O)n2-c2ccccc2C#N)c1O [Compound 25] |
| ≤ 1000 nM | – | – | – | – | – | ≤ 1000 nM | – | COc1cccc(/C=C/c2nc3ccccc3c(=O)n2-c2c(C)cc(OCCO)cc2C)c1O [Compound 1] |
| ≤ 500 nM | ≤ 500 nM | ≤ 500 nM | ≤ 500 nM | ≤ 500 nM | ≤ 500 nM | ≤ 500 nM | ≤ 500 nM | COc1nccc(/C=C/c2nc3cnccc3c(=O)n2-c2c(C)cccc2C)c1O [Compound 15] |
| ≤ 500 nM | ≤ 500 nM | ≤ 500 nM | ≤ 500 nM | – | – | ≤ 500 nM | ≤ 500 nM | Cc1cccc(C)c1-n1c(/C=C/c2cccc(OC(F)(F)F)c2O)nc2cnccc2c1=O [Compound 12] |
| ≤ 5000 nM | ≤ 5000 nM | – | – | – | – | – | – | COc1cccc(NC(=O)Nc2nc3ccccc3c(=O)n2-c2c(C)cccc2C)c1O [Compound 46] |
| ≤ 500 nM | ≤ 500 nM | ≤ 500 nM | ≤ 500 nM | – | – | ≤ 500 nM | ≤ 500 nM | Cc1cccc(C)c1-n1c(/C=C/c2cccc(OC(C)C)c2O)nc2ccccc2c1=O [Compound 51] |
| ≤ 10000 nM | ≤ 5000 nM | – | – | – | – | – | – | COc1cc(/C=C/c2nc3cnccc3c(=O)n2-c2c(C)cccc2C)ccn1 [Compound 26] |
| ≤ 500 nM | ≤ 500 nM | ≤ 500 nM | ≤ 500 nM | ≤ 500 nM | ≤ 1000 nM | ≤ 500 nM | ≤ 500 nM | COc1cccc(/C=C/c2nc3cnccc3c(=O)n2-c2c(C)cccc2OC)c1O [Compound 14] |
| ≤ 10000 nM | ≤ 10000 nM | – | – | – | – | – | – | COc1ccccc1-n1c(/C=C/c2cccc(OC)c2O)nc2cnccc2c1=O [Compound 13] |
| ≤ 500 nM | ≤ 500 nM | ≤ 500 nM | ≤ 500 nM | – | – | ≤ 500 nM | ≤ 500 nM | CCOc1cccc(C=Cc2nc3ccccc3c(=O)n2-c2c(F)cccc2F)c1O [Compound 57] |
| ≤ 10000 nM | ≤ 10000 nM | – | – | – | – | – | – | Cc1cccc(C)c1-n1c(/C=C/c2cccc3cn[nH]c23)nc2cnccc2c1=O [Compound 10] |
| ≤ 500 nM | ≤ 500 nM | – | – | – | – | ≤ 500 nM | ≤ 10000 nM | CCOc1cccc(/C=C/c2nc3cnccc3c(=O)n2-c2c(F)cccc2F)c1O [Compound 18] |
| ≤ 5000 nM | ≤ 10000 nM | – | – | – | – | – | – | Cc1cccc(C)c1-n1c(/C=C/c2cc(Cl)ccc2O)nc2cnccc2c1=O [Compound 20] |
| ≤ 10000 nM | ≤ 10000 nM | – | – | – | – | – | – | Cc1cccc(C)c1-n1c(/C=C/c2cc(OC(F)(F)F)ccc2O)nc2cnccc2c1=O [Compound 21] |
| ≤ 10000 nM | ≤ 10000 nM | – | – | – | – | – | – | Cc1cccc(C)c1-n1c(/C=C/c2cc(Cl)cnc2O)nc2cnccc2c1=O [Compound 22] |

| SMILES | IC50 (human (h) TRPV3; [1]) | IC50 (human (h) TRPV3; [2]) | IC50 (rat (r) TRPV3; [3]) | IC50 (rat (r) TRPV3; [4]) | IC50 (rat (r) TRPV3; [5]) | IC50 (rat (r) TRPV3; [6]) | IC50 (human (h) TRPV3; [7]) | IC50 (human (h) TRPV3; [8]) |
| --- | --- | --- | --- | --- | --- | --- | --- | --- |
| COc1cccc(/C=C/c2nc3ccccc3c(=O)n2-c2c(C)ccnc2C)c1O [Compound 32] | ≤ 500 nM | ≤ 500 nM | ≤ 1000 nM | ≤ 1000 nM | ≤ 500 nM | ≤ 1000 nM | ≤ 500 nM | ≤ 500 nM |
| COc1cccc(/C=C/c2nc3ccccc3c(=O)n2-c2c(F)cccc2F)c1O [Compound 56] | ≤ 500 nM | ≤ 500 nM | ≤ 500 nM | ≤ 500 nM | ≤ 500 nM | ≤ 500 nM | ≤ 500 nM | ≤ 500 nM |
| COc1cccc(/C=C(\C)c2nc3ccccc3c(=O)n2-c2ccccc2C)c1O [Compound 2] | ≤ 5000 nM | – | – | – | – | – | ≤ 5000 nM | – |
| Cc1ccccc1-n1c(/C=C/c2nnn[nH]2)nc2ccccc2c1=O [Compound 5] | > 10000 nM | – | – | – | – | – | > 10000 nM | – |
| Cc1ccccc1-n1c(-c2ccoc2)nc2ccccc2c1=O [Compound 4] | ≤ 10000 nM | – | – | – | – | – | ≤ 10000 nM | – |
| COc1cccc(-n2c(/C=C/c3cccc(OC)c3O)nc3ccccc3c2=O)c1 [Compound 54] | ≤ 500 nM | ≤ 500 nM | – | – | – | – | ≤ 500 nM | ≤ 500 nM |
| COc1cccc(C=Cc2nc3ccccc3c(=O)n2-c2c(C)cccc2C)c1OP(=O)(O)O [Compound 53] | ≤ 500 nM | ≤ 500 nM | – | – | – | – | ≤ 500 nM | ≤ 500 nM |
| COc1ccccc1-n1c(/C=C/c2cccc(OC)c2O)nc2ccccc2c1=O [Compound 52] | ≤ 500 nM | ≤ 500 nM | – | – | – | – | ≤ 500 nM | ≤ 500 nM |
| COc1ccnc(/C=C/c2nc3ccccc3c(=O)n2-c2c(C)cccc2C)c1O [Compound 39] | ≤ 10000 nM | ≤ 10000 nM | – | – | – | – | ≤ 10000 nM | ≤ 10000 nM |
